≈ marks a conversion by molar mass, not a printed value. Where “and” joins values, the source holds several entries; their conditions need not be identical. Identical values can stand only once.
How the values were obtained:
[1] = Toxicity in Galleria mellonella larvae upto 420 mg/kg treated for 14 days in dark; format: organism-based; conditions: in vivo, 336 h, time 14 day
[2] = Cytotoxicity against Spodoptera frugiperda Sf9 cells incubated for 24 hrs by trypan blue staining based assay; format: toxicity, cell-based; conditions: read-out: LC50
Bacillus subtilis = assay: Antibacterial activity against Bacillus subtilis NCTC […] assessed as zone of inhibition at 100 ug per disc incubated for 24 hrs by agar diffusion assay; format: functional; conditions: read-out: DIZ
[3] = Phytotoxicity in Sonchus arvensis assessed as diameter of lesions at 2 mg/ml incubated for 120 hrs by leaf puncture assay; format: toxicity
Aphididae = assay: Aphicidal activity against insects at 1 mg/ml measured after 24 hrs; format: functional
Paramecium caudatum = assay: Toxicity in Paramecium caudatum; format: organism-based; conditions: in vivo
[4] = Toxicity in Galleria mellonella larvae treated for 14 days in dark; conditions: 336 h, time 14 day
Schizaphis graminum = assay: Aphicidal activity against Schizaphis graminum at 1 mg/ml measured after 24 hrs; format: functional
[5] = Cytotoxicity against mouse LP07 cells measured after 24 hrs by MTT assay; format: functional, cell-based; conditions: LP07, 24 h
[6] = Cytotoxicity against mouse LM3 cells measured after 24 hrs by MTT assay; format: functional, cell-based; conditions: LM3, 24 h
MCF7 = assay: Cytotoxicity against human MCF7 cells measured after 24 hrs by MTT assay; format: functional, cell-based; conditions: MCF7, 24 h

Row | SMILES | Activity [1] | CC50 at 24 h [2] | zone of inhibition at 100 µg/disc (Bacillus subtilis) | Activity [3] | mortality at 1000 µg/mL (Aphididae) | Activity (Paramecium caudatum) | LC50 [4] | mortality at 1000 µg/mL (Schizaphis graminum) | IC50 [5] | IC50 [6] | IC50 (MCF7)
1 | C[C@@H]1CCC(=O)CCCCC(=O)O1 | Non-Toxic | > 100 µg/mL and > 540 µM | 0 mm | 0 mm | – | – | – | – | – | – | –
2 | C[C@@H]1CC[C@@H](O)[C@H](O)CCCC(=O)O1 | Non-Toxic | – | 0 mm | 0 mm | 33% | – | – | – | – | – | –
3 | C[C@H]1OC(=O)CCC(=O)C[C@H](O)[C@H]2O[C@H]21 | Non-Toxic | – | 0 mm | 1.1 mm | 13% | – | – | – | – | – | –
4 | CC(=O)O[C@@H]1CC[C@@H](C)OC(=O)/C=C\[C@@H]2O[C@H]21 | Non-Toxic | > 100 µg/mL and > 420 µM | 0 mm | 5.2 mm | 23% | – | – | – | – | – | –
5 | C[C@@H]1CC[C@@H](O)CCCCC(=O)O1 | Non-Toxic | > 100 µg/mL and > 540 µM | 0 mm | 0 mm | 0% | – | – | – | – | – | –
6 | C[C@@H]1CC[C@@H](O)[C@@H]2O[C@H]2/C=C\C(=O)O1 | Non-Toxic | > 100 µg/mL and > 500 µM | 0 mm | 5.5 mm | 8% | – | – | – | – | – | –
7 | C[C@H]1OC(=O)CC[C@H](O)/C=C/[C@H]2O[C@@H]12 | Non-Toxic | – | 0 mm | 0 mm | 0% | – | – | – | – | – | –
8 | C[C@@H]1C[C@H](O)/C=C/C(=O)/C=C\C(=O)O1 | Non-Toxic | < 1 µg/mL and < 5 µM | 45 mm | 4.3 mm | 10% | Non-Toxic | – | – | – | – | –
9 | CC(=O)O[C@H]1/C=C/C=C\C(=O)O[C@H](C)CC1 | – | – | 0 mm | 0 mm | 55% | – | 160 mg/kg | – | – | – | –
10 | CCC[C@H]1OC(=O)CCC/C=C/[C@H](O)[C@@H]1O [HERBARUMIN I] | Non-Toxic | – | 0 mm | 4.8 mm | – | – | – | 54% | – | – | –
11 | C[C@@H]1C[C@H](O)/C=C/[C@@H](O)/C=C\C(=O)O1 [MODIOLIDE A] | – | – | – | – | – | – | – | – | > 125 µg/mL | 292 µg/mL (≈ 1470 µM) | 61 µg/mL (≈ 308 µM)
12 | C[C@@H]1CC[C@@H](O)/C=C/C=C\C(=O)O1 [STAGONOLIDE E] | Non-Toxic | – | 0 mm | 1.7 mm | 67% | – | – | – | – | – | –
13 | CCC[C@H]1OC(=O)CCC/C=C/C(=O)[C@@H]1O [STAGONOLIDE] | – | 3 µg/mL and 13 µM | 38 mm | 6.4 mm | – | – | 300 mg/kg | 15% | – | – | –
